Assay results as given in patent US7838005B2, “Treatment of insulin resistance by administering an acid-sensing ion channel 3 inhibitor” (priority 2007, dated 2010).

Legend:
rodents = settings: salicylate 120 mg/kg/day, continual treatment; cited from earlier work
aging ASIC3+/+ mice [1] = test: Glucose tolerance test (GTT) with ASIC3 blockers in aging mice; format: in vivo; settings: salicylic acid 14 mg/kg or APETx2 0.23 mg/kg injected intraperitoneally with glucose 1.5 mg/g after overnight fast
Description: (§1) ASIC3−/− mice were generated as described in Chen et al., Proc. Natl. Acad. Sci. USA 99, 8992-8997, 2002. Congenic 129 mice were derived from breeding ASIC3 chimera with female 129S2/SvPasCrl wild type mice. All mice were raised in a 12:12-h light-dark cycle at 25° C. and 40% to 70% humidity. All experiments involved use of female mice in different age groups. The animals were bred in a specific pathogen-free facility and cared for in accordance with the Guide for the Use of Laboratory Animals (National Academy Press, Washington D.C.). The experimental protocol was approved by the animal use committee of Academia Sinica.
(§2) Mice of 9, 16, or 25 weeks old were tested for glucose tolerance (GTT) and those of 18 or 27 weeks old for insulin tolerance (ITT). For GTT, the mice fasted overnight then were injected with glucose intraperitoneally at 1.5 mg/g body weight. For ITT, the mice were given free access to food and injected with insulin intraperitoneally at 0.5 mU/g body weight. The glucose levels were measured in blood withdrawn from the tail vein. To study effects of ASIC3 blockers, salicylic acid (14 mg/kg) or APETx2 (0.23 mg/kg) were injected with glucose or insulin intraperitoneally.
(§3) To test whether ASIC3 selective blockers could reverse age-dependent glucose intolerance and insulin resistance, we tested the effects of salicylic acid and APETx2 in the aging mouse groups. […]

WAT-expressed ASIC3 = target: T1, WAT-expressed ASIC3 (Mus musculus, UniProt Q6X1Y6); test: Whole-cell patch recording of acid-evoked currents in cultured SVF adipose cells; format: cell-based; settings: pH 5.0 evoked currents, SVF adipose cells from mice 8 to 10 weeks old, voltage-clamp
T1 construct: Whole cell recordings were made of primary culture adipose cells; endogenous in cells; host or cells: primary stromal-vascular fraction (SVF) adipose cells from periovarian white adipose tissue of female mice
T1 sequence (Q6X1Y6 1-530): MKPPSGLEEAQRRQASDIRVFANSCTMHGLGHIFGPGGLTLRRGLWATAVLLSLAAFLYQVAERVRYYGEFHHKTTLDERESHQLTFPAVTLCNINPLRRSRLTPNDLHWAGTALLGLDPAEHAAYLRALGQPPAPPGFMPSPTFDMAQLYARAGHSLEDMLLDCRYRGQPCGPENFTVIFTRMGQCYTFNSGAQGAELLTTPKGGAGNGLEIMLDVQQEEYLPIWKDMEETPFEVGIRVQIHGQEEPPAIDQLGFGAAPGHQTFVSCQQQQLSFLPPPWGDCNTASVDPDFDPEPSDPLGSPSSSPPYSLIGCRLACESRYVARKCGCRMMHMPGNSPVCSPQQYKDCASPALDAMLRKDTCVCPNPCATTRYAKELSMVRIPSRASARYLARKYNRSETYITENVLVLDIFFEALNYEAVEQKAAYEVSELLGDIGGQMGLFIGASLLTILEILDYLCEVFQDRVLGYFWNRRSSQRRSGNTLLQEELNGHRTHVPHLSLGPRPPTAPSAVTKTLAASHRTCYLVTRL
Description: Fat pads of periovarian white adipose tissue (WAT) were isolated from female mice. One gram of the isolated fat pad was digested with 2 mg/ml of collagenase type VIII (Sigma) in 4 ml Dulbecco's modified Eagle's medium (DMEM) at 37° C. for 1 hour. Then, the digested tissues were centrifuged at 200×g for 5 minutes at 4° C. The supernatant, which contains mature adipocytes, was collected for RNA isolation. The cell pellet, the stromal-vascular fraction (SVF), consisted of mesenchynal cells (adipoblasts) and immature adipocytes (adipocyte precursors and postadipocytes) (Van, The adipocyte precusor cell. In: New perspectives in adipose tissue:structure, function, and development. Butterworths, Borough Green, England, chapt. 15, 353-382, 1985). The SVFs were collected for RNA isolation or re-suspended for cell culture in DMEM containing 10% fetal calf serum and antibiotics. SVF cells were plated at a concentration of 10^5 cells per glass cover slide (12 mm in diameter) and maintained at 37° C. in 5% humidified carbon dioxide. The cultured cells then underwent whole-cell patch recording in 5 days. […]
To determine whether WAT-expressed ASIC3 is functional, we applied whole-cell patch recording to examine the acid-evoked currents in cultured SVF cells isolated from mice 8 to 10 weeks old. […]

IKKβ = target: T2, IKKβ (Mus musculus, UniProt O88351); settings: salicylate 120 mg/kg/day, continual treatment, rodents; cited from earlier work
T2 construct: host or cells: rodents (in vivo)
T2 sequence (O88351 1-757): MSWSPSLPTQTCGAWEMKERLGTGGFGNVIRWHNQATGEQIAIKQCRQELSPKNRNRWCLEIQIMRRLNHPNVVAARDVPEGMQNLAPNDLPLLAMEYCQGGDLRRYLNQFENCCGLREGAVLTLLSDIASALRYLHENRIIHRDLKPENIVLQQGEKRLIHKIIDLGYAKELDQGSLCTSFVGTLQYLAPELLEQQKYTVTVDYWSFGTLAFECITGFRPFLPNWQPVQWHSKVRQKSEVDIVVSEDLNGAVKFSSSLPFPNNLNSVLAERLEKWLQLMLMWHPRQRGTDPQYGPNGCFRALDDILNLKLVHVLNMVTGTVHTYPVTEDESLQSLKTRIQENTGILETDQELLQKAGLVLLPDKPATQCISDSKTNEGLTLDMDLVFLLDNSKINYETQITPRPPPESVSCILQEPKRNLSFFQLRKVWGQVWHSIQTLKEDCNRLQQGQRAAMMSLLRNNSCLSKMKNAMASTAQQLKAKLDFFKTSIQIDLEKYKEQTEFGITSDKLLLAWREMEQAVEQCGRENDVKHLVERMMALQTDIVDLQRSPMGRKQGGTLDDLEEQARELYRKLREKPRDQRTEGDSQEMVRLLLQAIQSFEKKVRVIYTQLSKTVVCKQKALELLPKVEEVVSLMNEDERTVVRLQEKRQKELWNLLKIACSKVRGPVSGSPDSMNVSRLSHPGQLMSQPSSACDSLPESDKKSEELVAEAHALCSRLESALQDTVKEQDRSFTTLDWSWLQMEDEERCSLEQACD

aging ASIC3+/+ mice [2] = test: Insulin tolerance test (ITT) with ASIC3 blockers in aging mice; format: in vivo; settings: salicylic acid 14 mg/kg or APETx2 0.23 mg/kg injected intraperitoneally with insulin 0.5 mU/g
Description: as §1, §2, §3

Molecule | effect on obesity- and diet-induced insulin resistance (rodents) | effect on age-dependent glucose tolerance (GTT) (aging ASIC3+/+ mice [1]) | sensitivity of acid-induced inward currents to blocker (WAT-expressed ASIC3) | effect on IKKβ activity (IKKβ) | effect on insulin tolerance test / insulin sensitivity (ITT) (aging ASIC3+/+ mice [2])
O=C(O)c1ccccc1O [salicylic acid] | reversed obesity- and diet-induced insulin resistance | reverse in part the age-dependent effect of glucose tolerance | sensitive | disrupted IKKβ activity | not affect insulin tolerance test
APETx2 |  | effectively reverse the age-dependent effect of glucose tolerance | sensitive |  | significantly enhance the insulin sensitivity
